Assay [1] concerns the target T1, ERα (Homo sapiens, UniProt P03372).
T1 sequence (P03372 1-595): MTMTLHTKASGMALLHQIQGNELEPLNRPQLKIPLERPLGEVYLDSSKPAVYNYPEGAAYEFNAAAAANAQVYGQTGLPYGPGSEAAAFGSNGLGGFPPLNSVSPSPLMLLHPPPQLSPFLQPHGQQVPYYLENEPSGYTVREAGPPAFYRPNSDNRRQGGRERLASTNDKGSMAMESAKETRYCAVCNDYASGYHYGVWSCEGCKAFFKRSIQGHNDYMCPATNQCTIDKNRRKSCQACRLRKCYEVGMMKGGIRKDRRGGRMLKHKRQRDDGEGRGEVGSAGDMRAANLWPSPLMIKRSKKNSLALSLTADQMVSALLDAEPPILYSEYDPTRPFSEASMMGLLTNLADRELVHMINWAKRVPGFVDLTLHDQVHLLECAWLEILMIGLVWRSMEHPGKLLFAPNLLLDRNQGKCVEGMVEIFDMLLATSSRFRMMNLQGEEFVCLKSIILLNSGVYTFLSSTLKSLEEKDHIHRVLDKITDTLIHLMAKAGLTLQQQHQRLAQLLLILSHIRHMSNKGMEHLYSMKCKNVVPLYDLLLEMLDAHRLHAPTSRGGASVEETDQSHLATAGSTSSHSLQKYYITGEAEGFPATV
As to the kind of experiment: Fluorescence polarization assay: displacement of rhodamine-labeled peptide D22 from estradiol-activated ER. The format is binding. More on the design: purchased Invitrogen. The following applies: for Ki: ERα 75 nM, 17β-estradiol 2 μM, D22 1 nM; for affinity (in words): FP assay; for fluorescence polarization titration curve: FIG. 2. (Polarisation of emitted light reports the rotation of a fluorescent probe.)

Assay [2] deals with T1, ERα. As to the kind of experiment: Competitive radioligand assay with [3H]estradiol for the estradiol binding site. More on the design: purchased MDS Pharma Services (contract assay); host or cells: Sf9 insect cells. The conditions noted are these: ERα from human recombinant insect Sf9 cells. As to the method:
Inhibition of coactivator binding by a small molecule involves either direct competition with the helical peptide for the ER surface or binding of the small molecule to the ligand binding site as an antagonist, deactivating the ER and preventing coactivator recruitment. To rule out the latter mechanism, a competitive radioligand assay with [^3H]estradiol was carried out to specifically measure the affinity of 3 for the estradiol binding site. According to the radioligand assay, 3 binds to this site with an affinity <0.001% the affinity of 17β-estradiol. […] From this it was concluded that the helix mimetics prevent the coactivator association through direct competition for its binding site on the ER surface. […]
Procedure: Ammonium sulfate precipitates of the hER were dissolved in TDEE buffer containing 100 mM KCl, 0.5 mM leupeptin, and 10% glycerol. […] The hER was incubated with a varied concentration of [^3H]estradiol, and the nonspecific binding was measured by a parallel incubation with [^3H]estradiol plus a 300-fold excess of estradiol for 15 h at 4° C. At the completion of the incubation, 50 μL of each mixture was removed and the total [^3H]estradiol concentration determined. […] The hydroxylapatite pellets were suspended in 1 mL of ethanol and counted in 5 mL of scintillation fluid, and the receptor-bound [^3H]estradiol was measured. […]

Assay [3] has as its target T1, ERα. More on the design: purchased Invitrogen. The following applies: used to obtain Ki from IC50; D22 at 1 nM; read-out: Kd of the fluorescent peptide; cited from earlier work.

Here are results for nine compounds from patent publication US8084471B2, “Proteomimetic compounds as inhibitors of the interaction of nuclear receptor with coactivator peptides” (Yale University, priority 2006, dated 2011).

For orientation: Ki means the dissociation constant of the complex between target and ligand, obtained from inhibition or displacement. As usually defined, the Kd is the free concentration of one partner at which half of the binding sites on the other are occupied at equilibrium, for simple one-to-one binding.

Ends that are not written are not given here.

The compound `CC(C)Cc1cc(O)c(=O)n(CCc2ccccc2)c1-c1ccnc(Cc2ccccc2)c1` [Compound 6, 6-(2-Benzyl-4-pyridyl)-3-hydroxy-5-isobutyl-1-(2-phenylethyl)-1H-pyridin-2-one] came in with an inhibition constant (Ki) on ERα [1] (standard deviation in brackets) of 6.5 µM.
With `CC(C)Cc1cc(O)c(=O)n(CCc2ccc3ccccc3c2)c1-c1ccnc(Cc2ccccc2)c1` [Compound 7, 6-(2-Benzyl-4-pyridyl)-3-hydroxy-5-isobutyl-1-(2-(2-naphthyl)ethyl)-1H-pyridin-2-one], at ERα [1] (standard deviation in brackets), the affinity, expressed as Ki, was 4.2 µM.
For the compound `CC(C)Cc1cc(-c2c(CC(C)C)cc(O)c(=O)n2CCC(C)(C)C)ccn1` [Compound 4, 3-hydroxy-5-isobutyl-6-(2-isobutyl-4-pyridyl)-1-(3,3-dimethylbutyl)1H-pyridin-2-one], at ERα [1] (standard deviation in brackets), the Ki is greater than 50 µM. Further, the “affinity (in words)” value on ERα [1] is given as “weak affinity”.
On ERα [1] (standard deviation in brackets), `CC(C)Cc1cc(-c2c(CC(C)C)cc(O)c(=O)n2CCc2ccccc2)ccn1` [Compound 3, 3-Hydroxy-5-isobutyl-6-(2-isobutyl-4-pyridyl)-1-(2-phenylethyl)-1H-pyridin-2-one] gave a Ki of 9.4 µM. Further, the “affinity for the estradiol binding site relative to 17β-estradiol” value on ERα [2] is given as less than 0.001%.
In the case of `CC(C)Cc1cc(O)c(=O)n(CCC(C)(C)C)c1-c1ccnc(C(C)(C)C)c1` [Compound 5, 6-(2-tert-Butyl-4-pyridyl)-3-hydroxy-5-isobutyl-1-(3,3-dimethylbutyl)1H-pyridin-2-one], the inhibition constant (Ki) at ERα [1] (standard deviation in brackets) is greater than 50 µM. In addition, on ERα [1], the “fluorescence polarization titration curve” value is “about 0.95” and the “affinity (in words)” value was “weak affinity”.
In the case of “CLTERHKILHRLLQE [SRC-1 NR II, CLTERHKILHRLLQE, reference compound]”, the Ki came to 0.95 µM on ERα [1] (standard deviation in brackets) and 1 µM on ERα [1] (Table 1 left column).
Take `CC(C)CCn1c(-c2ccnc(CC(C)C)c2)c(CC(C)C)cc(O)c1=O` [Compound 2, 3-Hydroxy-5-isobutyl-6-(2-isobutyl-4-pyridyl)-1-(3-methylbutyl)-1H-pyridin-2-one]: the inhibition constant (Ki) at ERα [1] (standard deviation in brackets) turned out to be 16 µM.
Regarding `CC(C)Cc1cc(-c2c(CC(C)C)cc(O)c(=O)n2CC(C)C)ccn1` [Compound 1, 3-Hydroxy-1,5-diisobutyl-6-(2-isobutyl-4-pyridyl)-1H-pyridin-2-one], the “fluorescence polarization titration curve” value at ERα [1] is listed as “slopes rapidly downward”. The same compound returned an inhibitory constant (Ki) on ERα [1] (Table 1 left column) of 34 µM. Further, the decrease in affinity at ERα [1] (relative to compound 2) came out at 2 fold.
In the case of “Rho-LPYEGSLLLKLLRAPVEEV-COOH [Compound D22, rhodamine-labeled peptide which contains a single LXXLL motif, FP probe]”, at ERα [3], the equilibrium dissociation constant (Kd) is 0.031 µM.
